A value given as a limit tells only on which side of the number the result lay.

The test system of experiment [1] is MV-4-11 (human myelomonocytic leukemia cells). Kind of experiment: CCK-8 cell proliferation assay, MV-4-11. Format: cell-based. The note with it: MV4-11, 24 h incubation, 11 concentrations from 5000 nM, 3-fold, read-out: MV-4-11 cell proliferation IC50 (class). Here is the method: (§1) Test samples: the compounds of the present invention, having structures shown above.
MV-4-11 (human myelomonocytic leukemia cells) and NCI-H929 (human myeloma cells).
The compounds were dissolved in DMSO and diluted 3-fold in the 96-well plate to obtain stock solutions with 11 concentration gradients. Each cell was inoculated into a 96-well plate, and the diluted compound stock solution was added to the 96-well plate to obtain a series of 11 concentration gradients of compound solutions with final concentrations of 5000 nM starting and 3-fold gradient decreasing, wherein the final DMSO content was […]. There was a medium containing 1‰ DMSO in the negative control well. The treated cells were incubated at 37° C. with 5% CO2 and 95% humidity, wherein MV-4-11 were incubated for 24 h and NCI-H929 for 72 h. After incubation was completed, each well was added with 10 μL of CCK-8 reagent, incubated for 1-3 h at room temperature and placed in the microplate reader, and the absorbance was read at 450 nm.
(§2) The inhibition rate was calculated according to the following formula: […]
ODcmpd: compound absorbance; ODpositive: average value of the absorbance of positive control without compound; ODvehicle: average value of the absorbance of solvent vehicle control.
(§3) IC50 values were fitted using GraphPad 7.0 based on inhibition rates of compounds at different concentrations.
(In general: Formazan colour is commonly taken as a measure of viable cells.)

The target of the next experiment is CDK9/CycT1 (Homo sapiens, UniProt P50750). Kind of experiment: ADP-Glo kinase assay on CDK enzymatic activity, CDK9/CycT1. It counts as biochemical. The note with it: 10 concentrations from 10 μM, 4-fold, 60 min room temperature. An outline of the steps:
(§4)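 IC50 values derive from luminescent ADP detection (ADP-Glo) after a 60 min room-temperature kinase reaction with CDK tide and ATP. Dose range: 10 μM down in 4-fold steps, ten points.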
(In general: In ADP-Glo the light output rises with the ADP produced.)

The target of the next experiment is CDK1/CycE1 (Homo sapiens, UniProt P06493). Kind of experiment: ADP-Glo kinase assay on CDK enzymatic activity, CDK1/CycE1. It counts as biochemical. To be noted: ADP-Glo; 10 concentrations from 10 μM, 4-fold; 60 min room temperature; read-out: CDK1/CycE1/nM (IC50). An outline of the steps: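 Compounds in 10-point 4-fold dilutions from 10 μM final, preincubated 10 min with kinase, then substrate/ATP added; 60 min reaction at room temperature. ADP-Glo luminescence read.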

The target in the next experiment is CDK2/CycA2 (Homo sapiens, UniProt P24941). Kind of experiment: ADP-Glo kinase assay on CDK enzymatic activity, CDK2/CycA2. Format: biochemical. The note with it: 10 concentrations from 10 μM, 4-fold, 60 min room temperature. An outline of the steps:
as §4

The next experiment concerns the target CDK3/CycE1 (Homo sapiens, UniProt Q00526). In words: ADP-Glo kinase assay on CDK enzymatic activity, CDK3/CycE1. It counts as biochemical. The note with it: 10 concentrations from 10 μM, 4-fold, 60 min room temperature.
Text: as §1
(§5) ADP-Glo Kinase Assay (ADP-Glo kinase kit), DMSO (dimethyl sulfoxide), CDK9/CycT1 (cyclin-dependent kinase 9/cyclin T1), CDK tide (cyclin-dependent kinase substrate peptide fragments), CDK1/CycE1 (cyclin-dependent kinase 1/cyclin E1), CDK2/CycA2 (cyclin-dependent kinase 2/cyclin A2), CDK3/CycE1 (cyclin-dependent kinase 3/cyclin E1), CDK4/CycD3 (cyclin-dependent kinase 4/cyclin D3), CDK5/p25NCK (cyclin-dependent kinase 5/p25), and AZD 4573.
(§6) A 384-well white plate, a 96-well plate, a microplate oscillator, a centrifuge, and a microplate reader.
(§7) The compounds were dissolved in DMSO and diluted 4-fold in the 96-well plate to obtain stock solutions with 10 concentration gradients, and added into a 384-well plate system to obtain a series of 10 concentration gradients of compound solutions with final concentrations of 10 μM starting and 4-fold gradient decreasing. 1 μM AZD4573 was used as compound positive control (PC) and 0.5% DMSO as solvent vehicle control (VC), ten duplicated wells each for PC and VC.
(§8) 1 μL of compound solution and 2 μL of 2× kinase solution were transferred to each well, and the plate was centrifuged at 1000 g for 30 s and left at room temperature for 10 min. A mixture of 2× substrate and ATP was prepared in 1× kinase buffer. The reaction was started after adding 2 μL of substrate and ATP into the plate. The plate was centrifuged at 1000 g for 30 s. The assay plate was closed and left at room temperature for 60 min. The reaction system was added with 4 μL of ADP Glo reagent, centrifuged at 1000 rpm for 1 min, and incubated at room temperature for 40 min. The reaction system was added with 8 μL of kinase assay reagent, centrifuged at 1000 rpm for 1 min and incubated at room temperature for 40 min. The […] was read on Biotek.
as §2
(§9) Lumcmpd: compound fluorescence reading; Lumpositive: average value of the fluorescence reading of positive compound control; Lumvehicle: average value of the fluorescence reading of solvent vehicle control.
as §3

For the next experiment, the target named is CDK5/p25NCK (Homo sapiens, UniProt Q00535). In words: ADP-Glo kinase assay on CDK enzymatic activity, CDK5/p25NCK. It counts as biochemical. The note with it: 10 concentrations from 10 μM, 4-fold, 60 min room temperature.
Text: as §1, §5, §6, §7, §8, §2, §9, §3

CDK5/p25NCK, sequence (Q00535 whole entry, species assumed): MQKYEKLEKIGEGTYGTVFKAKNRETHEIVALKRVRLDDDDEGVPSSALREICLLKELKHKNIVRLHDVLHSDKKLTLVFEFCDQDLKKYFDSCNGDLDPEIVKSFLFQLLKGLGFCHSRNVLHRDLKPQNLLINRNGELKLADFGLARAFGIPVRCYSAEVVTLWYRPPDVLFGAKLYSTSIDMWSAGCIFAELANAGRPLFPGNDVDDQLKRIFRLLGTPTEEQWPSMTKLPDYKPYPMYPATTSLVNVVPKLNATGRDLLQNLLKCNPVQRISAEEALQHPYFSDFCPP
CDK5/p25NCK, sequence (Q15078 99-307 partner limits assumed, species assumed): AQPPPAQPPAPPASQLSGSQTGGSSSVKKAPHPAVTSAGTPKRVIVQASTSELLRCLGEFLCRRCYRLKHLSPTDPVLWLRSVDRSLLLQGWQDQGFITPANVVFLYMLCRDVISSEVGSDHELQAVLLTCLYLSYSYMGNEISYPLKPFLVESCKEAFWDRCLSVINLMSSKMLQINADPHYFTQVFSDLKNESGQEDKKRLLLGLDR
CDK3/CycE1, sequence (Q00526 whole entry, species assumed): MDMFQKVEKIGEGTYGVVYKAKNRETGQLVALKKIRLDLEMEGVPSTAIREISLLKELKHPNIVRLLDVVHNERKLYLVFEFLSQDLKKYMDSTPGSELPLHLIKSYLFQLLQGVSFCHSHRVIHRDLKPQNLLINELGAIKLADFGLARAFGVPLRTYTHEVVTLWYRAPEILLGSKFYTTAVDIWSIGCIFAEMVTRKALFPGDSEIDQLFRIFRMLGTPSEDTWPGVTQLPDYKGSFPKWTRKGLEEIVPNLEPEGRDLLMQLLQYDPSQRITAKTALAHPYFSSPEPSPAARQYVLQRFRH
CDK3/CycE1, sequence (P24864 whole entry partner, species assumed): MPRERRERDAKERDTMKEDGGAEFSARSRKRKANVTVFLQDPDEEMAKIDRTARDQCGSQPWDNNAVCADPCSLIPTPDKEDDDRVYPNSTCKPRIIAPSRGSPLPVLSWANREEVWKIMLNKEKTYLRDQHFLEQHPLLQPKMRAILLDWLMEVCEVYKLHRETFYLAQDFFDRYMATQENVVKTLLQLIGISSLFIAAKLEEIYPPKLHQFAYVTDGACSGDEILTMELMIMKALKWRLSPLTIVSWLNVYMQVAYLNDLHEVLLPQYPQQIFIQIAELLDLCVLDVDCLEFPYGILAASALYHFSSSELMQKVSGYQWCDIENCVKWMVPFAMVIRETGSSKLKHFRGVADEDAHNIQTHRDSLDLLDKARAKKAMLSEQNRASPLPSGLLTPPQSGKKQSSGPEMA
CDK1/CycE1, sequence (P06493 whole entry, species assumed): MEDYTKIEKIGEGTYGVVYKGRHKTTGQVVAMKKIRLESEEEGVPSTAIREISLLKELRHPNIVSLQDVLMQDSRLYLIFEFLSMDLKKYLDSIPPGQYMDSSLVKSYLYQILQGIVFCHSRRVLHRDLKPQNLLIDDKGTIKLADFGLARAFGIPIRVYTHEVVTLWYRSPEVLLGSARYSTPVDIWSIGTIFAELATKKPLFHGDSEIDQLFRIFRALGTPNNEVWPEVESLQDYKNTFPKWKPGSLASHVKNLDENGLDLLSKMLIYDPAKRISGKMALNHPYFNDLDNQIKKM
CDK1/CycE1, sequence (P24864 whole entry partner, species assumed): as the sequence (P24864 whole entry partner, species assumed) above
CDK9/CycT1, sequence (P50750 whole entry): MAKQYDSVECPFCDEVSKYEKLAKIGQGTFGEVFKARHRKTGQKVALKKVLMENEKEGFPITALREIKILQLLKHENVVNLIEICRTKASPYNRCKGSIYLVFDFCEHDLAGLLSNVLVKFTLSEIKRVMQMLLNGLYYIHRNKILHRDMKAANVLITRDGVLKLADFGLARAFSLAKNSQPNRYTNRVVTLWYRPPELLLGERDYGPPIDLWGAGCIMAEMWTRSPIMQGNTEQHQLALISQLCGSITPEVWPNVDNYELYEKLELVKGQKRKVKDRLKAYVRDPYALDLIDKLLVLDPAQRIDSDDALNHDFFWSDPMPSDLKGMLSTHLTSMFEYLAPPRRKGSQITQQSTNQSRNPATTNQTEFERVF
CDK9/CycT1, sequence (O60563 whole entry partner): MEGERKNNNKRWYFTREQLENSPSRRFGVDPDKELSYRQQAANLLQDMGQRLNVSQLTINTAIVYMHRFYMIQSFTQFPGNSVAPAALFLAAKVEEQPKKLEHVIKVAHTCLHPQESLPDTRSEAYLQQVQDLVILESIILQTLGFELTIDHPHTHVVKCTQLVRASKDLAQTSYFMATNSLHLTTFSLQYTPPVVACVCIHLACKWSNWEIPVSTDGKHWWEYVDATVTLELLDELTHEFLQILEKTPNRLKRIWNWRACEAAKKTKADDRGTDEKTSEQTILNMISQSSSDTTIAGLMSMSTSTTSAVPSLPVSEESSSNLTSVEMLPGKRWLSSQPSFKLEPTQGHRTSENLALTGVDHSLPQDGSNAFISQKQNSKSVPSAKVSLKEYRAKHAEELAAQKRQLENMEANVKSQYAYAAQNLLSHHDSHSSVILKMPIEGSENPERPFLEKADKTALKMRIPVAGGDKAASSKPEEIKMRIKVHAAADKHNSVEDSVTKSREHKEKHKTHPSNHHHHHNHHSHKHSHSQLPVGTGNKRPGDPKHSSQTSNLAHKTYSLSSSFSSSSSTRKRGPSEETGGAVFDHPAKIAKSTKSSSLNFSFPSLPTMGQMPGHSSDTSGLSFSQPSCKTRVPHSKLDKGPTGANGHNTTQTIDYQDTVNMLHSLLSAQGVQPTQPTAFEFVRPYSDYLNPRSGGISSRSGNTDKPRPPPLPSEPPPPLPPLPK

With `Cc1nc(C#N)cc2cnc(N[C@H]3CCCNC3)cc12` [Compound 196, (S)-1-methyl-7-(piperidin-3-ylamino)-2,6-naphthyridine-3-carbonitrile], in experiment [1], the IC50 was greater than 1 µM.
Same read-out and setting: in the case of `CC(C)Cc1nc(C#N)cc2cnc(N[C@H]3CCCNC3)cc12` [Compound 108, (S)-1-isobutyl-7-(piperidin-3-ylamino)-2,6-naphthyridine-3-carbonitrile] it was 0.4 to 1 µM; in that of `CC(=O)N[C@@H]1CCC[C@H](C(=O)Nc2ncc3cc(C)nc(NC(C)C)c3n2)C1` [Compound 8, (1S,3R)-3-acetamido-N-(8-(isopropylamino)-6-methylpyrido[3,4-d]pyrimidin-2-yl)cyclohexane-1-carboxamide], greater than 1 µM.
In the case of `CC(=O)N[C@@H]1CCC[C@H](C(=O)Nc2ncc3cc(S(C)(=O)=O)nc(NC(C)C)c3n2)C1` [Compound 5, (1S,3R)-3-acetamido-N-(8-(isopropylamino)-6-(methylsulfonyl)pyrido[3,4-d]pyrimidin-2-yl)cyclohexane-1-carboxamide], in experiment [1], the IC50 was greater than 1 µM.
Still for that read-out and setting: in the case of `CC(C)Nc1nc(C#N)cc2cnc(N[C@H]3CCC[C@@H](N)C3)cc12` [Compound 40, 7-(((1S,3R)-3-aminocyclohexyl)amino)-1-(isopropylamino)-2,6-naphthyridine-3-carbonitrile] it was 0.4 to 1 µM; in that of `COc1cc2cnc(NC(=O)[C@H]3CCC[C@@H](NC(C)=O)C3)nc2c(NC(C)C)n1` [Compound 12, (1S,3R)-3-acetamido-N-(8-(isopropylamino)-6-methoxypyrido[3,4-d]pyrimidin-2-yl)cyclohexane-1-carboxamide], greater than 1 µM.
For `CC(=O)N[C@@H]1CCC[C@H](C(=O)Nc2cc3c(N4CCOCC4)nc(C#N)cc3cn2)C1` [Compound 21, (1S,3R)-3-acetamido-N-(7-cyano-5-morpholino-2,6-naphthyridin-3-yl)cyclohexane-1-carboxamide], in experiment [1], the IC50 is greater than 1 µM.
For `CC(C)Nc1nc(C#N)cc2cnc(NC3CC4(CNC4)C3)nc12` [Compound 130, 2-((2-azaspiro[3.3]heptan-6-yl)amino)-8-(isopropylamino)pyrido[3,4-d]pyrimidine-6-carbonitrile], the IC50 amounted to 2 nM against CDK9/CycT1; 25 nM on CDK1/CycE1; 74 nM at CDK2/CycA2; 32 nM at CDK3/CycE1; 447 nM against CDK5/p25NCK.
The corresponding values for `CC(C)(C)Nc1nc(C(F)F)cc2cnc(N[C@H]3CCCNC3)nc12` [Compound C1] are 2 nM, 7 nM, 21 nM, 7 nM and 17 nM.
Take `CC(C)Nc1nc(C#N)cc2cnc(N[C@H]3CCCNC3)cc12` [Compound 38, (S)-1-(isopropylamino)-7-(piperidin-3-ylamino)-2,6-naphthyridine-3-carbonitrile]: the IC50 stood at 2 nM on CDK9/CycT1; 83 nM at CDK1/CycE1; 110 nM against CDK2/CycA2; 66 nM at CDK3/CycE1; 103 nM at CDK5/p25NCK.
Consider `CC(=O)N[C@@H]1CCC[C@H](C(=O)Nc2ncc3cc(C#N)nc(NC(C)C)c3n2)C1` [Compound 3, (1S,3R)-3-acetamido-N-(6-cyano-8-(isopropylamino)pyrido[3,4-d]pyrimidin-2-yl)cyclohexane-1-carboxamide], for which, in experiment [1], the IC50 is greater than 1 µM.
Turning to `N#Cc1cc2cnc(N[C@H]3CCCNC3)cc2c(N[C@@H]2CCOC2)n1` [Compound 150, 7-(((S)-piperidin-3-yl)amino)-1-(((R)-tetrahydrofuran-3-yl)amino)-2,6-naphthyridine-3-carbonitrile], the IC50 is 2 nM at CDK9/CycT1; 608 nM on CDK1/CycE1; 450 nM at CDK2/CycA2; 281 nM on CDK3/CycE1; 1460 nM against CDK5/p25NCK.
In the case of `CCNc1nc(C#N)cc2cnc(N[C@H]3CCCNC3)cc12` [Compound 186, (S)-1-(ethylamino)-7-(piperidin-3-ylamino)-2,6-naphthyridine-3-carbonitrile], the IC50 came to 3 nM on CDK9/CycT1; 336 nM at CDK1/CycE1; 352 nM against CDK2/CycA2; 915 nM against CDK3/CycE1; 176 nM at CDK5/p25NCK.
In the case of `CC(C)Nc1nc(C#N)cc2cnc(N[C@H]3CC[C@H](O)C3)nc12` [Compound 122, 2-(((1S,3S)-3-hydroxycyclopentyl)amino)-8-(isopropylamino)pyrido[3,4-d]pyrimidine-6-carbonitrile], the IC50 on CDK9/CycT1 worked out at 1 nM; on CDK1/CycE1, 3 nM; against CDK2/CycA2, 6 nM; against CDK3/CycE1 it was 8 nM; at CDK5/p25NCK it was 17 nM.
For `CC(Nc1nc(C#N)cc2cnc(N[C@H]3CCCNC3)cc12)C(F)(F)F` (stereo partly drawn) [Compound 61, 7-(((S)-piperidin-3-yl)amino)-1-((1,1,1-trifluoropropan-2-yl)amino)-2,6-naphthyridine-3-carbonitrile], the IC50 was 3 nM against CDK9/CycT1; 173 nM at CDK1/CycE1; 227 nM on CDK2/CycA2; 124 nM against CDK3/CycE1; 484 nM against CDK5/p25NCK.
The corresponding values for `CC(C)(C)Oc1nc(C#N)cc2cnc(N[C@H]3CCCNC3)cc12` [Compound 152, (S)-1-(tert-butoxy)-7-(piperidin-3-ylamino)-2,6-naphthyridine-3-carbonitrile] are 2 nM, 110 nM, 267 nM, 124 nM and 1000 nM.
For the molecule `CCOc1nc(C(F)F)cc2cnc(N[C@H]3C[C@H](N)C3)cc12` [Compound 200, (trans)-N^1-(7-(difluoromethyl)-5-ethoxy-2,6-naphthyridin-3-yl)cyclobutane-1,3-diamine], the IC50 on CDK9/CycT1 stood at 2 nM; at CDK1/CycE1 it was 149 nM; against CDK2/CycA2, 244 nM; on CDK3/CycE1, 1100 nM; on CDK5/p25NCK it was 263 nM.
Consider `N#Cc1cc2cnc(N[C@H]3CCCNC3)cc2c(N[C@H]2CCOC2)n1` [Compound 151, 7-(((S)-piperidin-3-yl)amino)-1-(((S)-tetrahydrofuran-3-yl)amino)-2,6-naphthyridine-3-carbonitrile], for which the IC50 against CDK9/CycT1 stood at 8 nM; at CDK1/CycE1, 411 nM; on CDK2/CycA2, 1290 nM; on CDK3/CycE1 it was 832 nM; against CDK5/p25NCK it was 4140 nM.
The corresponding values for `FC(F)c1cc2cnc(N[C@H]3CCCNC3)cc2c(N[C@@H]2CCOC2)n1` [Compound 201, 3-(difluoromethyl)-N7—((S)-piperidin-3-yl)-N^1—((R)-tetrahydrofuran-3-yl)-2,6-naphthyridine-1,7-diamine] are 2 nM, 215 nM, 83 nM, 189 nM and 53 nM.
Consider `CC(C)(C)Nc1nc(C#N)cc2cnc(N[C@H]3CCCNC3)cc12` [Compound 149, (S)-1-(tert-butylamino)-7-(piperidin-3-ylamino)-2,6-naphthyridine-3-carbonitrile], for which the IC50 came out at 1 nM against CDK9/CycT1; 42 nM at CDK1/CycE1; 126 nM against CDK2/CycA2; 60 nM at CDK3/CycE1; 295 nM at CDK5/p25NCK.
